Data: PubChem BioAssay (NCI)
“And” between values parts separate entries of the source, which are not always exact repeats. Equal values may be shown once.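 Growth conditions: 96-well plates. Treatment: test compound, 48 hours, 5 concentrations. Analysis: linear interpolation between bracketing concentrations; unreached endpoints set to highest concentration. GI50: concentration for 50% inhibition of growth. At the TGI there is no net growth.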 Where a SMILES comes first, the peptide text is derived from it. [ ]: non-standard residue; d: D form. The star is where a group is joined. ξ: configuration not given here. NMeN = CN[C@@H](CC(N)=O)C(=O)O; NMeV = CN[C@H](C(=O)O)C(C)C; ξNMeV = CNC(C(=O)O)C(C)C; Boc = CC(C)(C)OC(=O)*; ξNMeA = CNC(C)C(=O)O

What was measured:
Experiment in all cases: NCI-60 cell line screen, 48 h
[1] = tested on: SK-OV-3 ovarian
[2] = tested on: UACC-62 melanoma
[3] = tested on: HCT-116 colon
[4] = tested on: SK-MEL-5 melanoma
[5] = tested on: RXF 393 renal
[6] = tested on: OVCAR-3 ovarian
[7] = tested on: MDA-MB-435
[8] = tested on: CAKI-1 renal
[9] = tested on: KM12 colon
[10] = tested on: SR leukemia

| SMILES | TGI [1] [µM] | TGI [2] [µM] | TGI [3] | TGI [4] | TGI [5] | TGI [6] [µM] | TGI [7] [µM] | TGI [8] [µM] | TGI [9] [µM] | TGI [10] [µM] | GI50 [1] [µM] | GI50 [2] [µM] | GI50 [3] [µM] | GI50 [4] [µM] | GI50 [5] [µM] | GI50 [6] [µM] | GI50 [8] [µM] | GI50 [7] [µM] | GI50 [9] [µM] | GI50 [10] [µM] |
| --- | --- | --- | --- | --- | --- | --- | --- | --- | --- | --- | --- | --- | --- | --- | --- | --- | --- | --- | --- | --- |
| c1ccc2c(c1)-c1ccccc1C2N1CC2CCC(CC2)C1 | > 100 | 44.5 | 46.9 µM | 32.6 µM | 33.7 µM | 40.5 | 73.4 | > 100 | 39.9 | 50.6 | – | – | – | – | – | – | – | – | – | – |
| COC(=O)C(C)N(C)C(=O)[C@H](CC(N)=O)N(C)C(=O)[C@@H]1CCCN1C(=O)[C@H](C(C)C)N(C)C(=O)C(C(C)C)N(C)C(=O)[C@@H](NC(=O)OC(C)(C)C)C(C)C (stereo partly drawn) (Boc-V[ξNMeV][NMeV]P[NMeN][ξNMeA]-OMe) | > 100 | > 100 | 50 µM and > 100 µM | 50 µM and > 100 µM | > 50 µM and 96.8 µM | > 100 | > 50 | > 100 | > 100 | > 100 | > 100 | > 100 | 39.3 | > 100 | 32.6 | > 100 | > 100 | – | – | – |
| COc1cccc(-c2nc3sccn3c2-c2ccnc(NCCNS(=O)(=O)c3ccccc3)c2)c1 | > 100 | 3.49 | > 100 µM | 4.89 µM | > 100 µM | > 100 | > 100 | > 100 | 25 | > 100 | 5.11 | 1.29 | 2.73 | 1.53 | 2.11 | 3.15 | 1.42 | 3.1 | 3.13 | 3.21 |
| CCOc1ccc(Nc2nc(-c3ccc4c(c3)NC(=O)CO4)cs2)cc1 | > 100 | 23.5 | > 100 µM | 3.5 µM | 62.4 µM | > 100 | 11.3 | 90.7 | > 100 | > 100 | 32.5 | 6.94 | 4.01 | 1.65 | 16.1 | 20.2 | 19 | 2.95 | 11.1 | 4.68 |
| Cc1occc1C(=S)Nc1ccc(Cl)c(/C=N/OC(C)C)c1 | > 56.7 | 29.2 | > 51.7 µM | 41.4 µM | 56.4 µM | 30.9 | 31 | 40.9 | 53.6 | > 59.9 | – | – | – | – | – | – | – | – | – | – |
| CN1CCCCCC(=N\O)/C(=N/O)CCCCC1 | – | – | > 100 µM | > 100 µM | > 100 µM | > 100 | > 100 | > 100 | > 100 | > 100 | – | – | – | – | – | – | – | – | – | – |
| COc1ccc(-c2ccc(/C=N/n3c(COc4ccc(Cl)cc4Cl)nn(CN4CCN(C)CC4)c3=S)o2)c([N+](=O)[O-])c1 | 80.7 | – | 29.5 µM | – | 32.9 µM | 25 | 37.5 | 37.3 | 36.5 | 96.1 | 30.8 | – | 16 | – | 6.86 | 7.51 | 16.8 | 15.9 | 15.1 | 31.1 |
| NC(=N\N=C/c1cccc([N+](=O)[O-])c1)/C(N)=N\N=C/c1cccc([N+](=O)[O-])c1 | > 100 | > 100 | > 100 µM | > 100 µM | > 100 µM | > 100 | > 100 | > 100 | > 100 | > 100 | > 100 | > 100 | > 100 | > 100 | > 100 | > 100 | > 100 | > 100 | > 100 | > 100 |
| CCCN1CCN(c2ccc3nc(-c4ccc5nc(-c6cc(OC)ccc6OC)[nH]c5c4)[nH]c3c2)CC1 | – | 34.7 | 3.16 µM | 34.1 µM | 3.17 µM | 3.39 | 3.24 | 30.7 | 3.46 | 5.54 | – | 19 | 1.74 | 15.1 | 1.65 | 1.84 | 15.9 | 1.79 | 1.86 | 2.55 |
| Cn1nc(-c2ccccc2)nc1[N+](=O)[O-] | > 10 | > 10 | > 10 µM | > 10 µM | > 10 µM | > 10 | > 10 | > 10 | > 10 | > 10 | – | – | – | – | – | – | – | – | – | – |
| O=C(Nc1cc[c]([Sb](=[O])([OH])[OH])cc1)c1ccccc1 | – | > 100 | > 100 µM | > 100 µM | > 100 µM | > 100 | > 100 | > 100 | > 100 | > 100 | – | > 100 | > 100 | > 100 | > 100 | > 100 | > 100 | > 100 | > 100 | > 100 |
| COc1ccc(C2=C(c3ccc(OC)c(OC)c3)C(=O)OC2)cc1 | > 100 | 13.2 | > 100 µM | 2.57 µM | > 100 µM | 0.389 | – | 4.89 | 3.34 | 0.0192 | – | < 0.01 | < 0.01 | < 0.05 | 0.0792 | 0.177 | – | < 0.0463 | – | < 0.01 |
| COc1ccc2c(CN3CCC[C@H]3C(=O)O)cc3cc4c(cc3c2c1)OCO4 | 51.1 | 23.7 | > 100 µM | 34.2 µM | 23.2 µM | 63 | 30.4 | 88.6 | 41.8 | > 100 | 14.6 | 10.9 | 4.8 | 12.2 | 6.81 | 12 | 25 | 14.7 | 12 | 6.23 |
| NC(=O)c1ccc2c(-c3ccnc(NCCCO)n3)c(-c3ccc(F)cc3)nn2c1 | > 25 | > 25 | > 25 µM | > 25 µM | > 25 µM | > 25 | > 25 | > 25 | > 25 | > 25 | > 24.2 | > 25 | > 25 | > 25 | 21.4 | 18.6 | > 25 | > 18.3 | > 25 | > 25 |
